{"source": "paper PMC4956231", "about": "“Molecular Mechanisms for Drug Hypersensitivity Induced by the Malaria Parasite’s Chloroquine Resistance Transporter” (PLoS Pathogens, 2016)", "key": {"Dd2": {"test_system": "Dd2", "assay": "P. falciparum drug susceptibility (parasite proliferation, SYBR Safe)", "format": "cell-based", "conditions": "Plasmodium falciparum, DD2, 72 h", "experimental": "(§1) Parasite proliferation was measured in 96-well plates using a fluorescent DNA-intercalating dye and a protocol described in detail previously. Briefly, cell suspensions containing erythrocytes infected with ring-stage parasites (hematocrit and parasitemia of approximately 2% and 1%, respectively) were incubated at 37°C for 72 h. The samples were frozen, thawed, and then processed by the addition of 100 μL (per well) of SYBR Safe DNA Gel Stain (Molecular Probes; 0.2 μL/mL) in a lysis buffer (20 mM Tris, 5 mM EDTA, 0.008% w/v saponin, and 0.08% v/v Triton X-100; pH 7.5). The fluorescence emanating from each well was measured immediately using a Tecan Infinite M1000 PRO microplate reader (excitation 490 nm; emission 520 nm) and the average fluorescence from wells containing the highest concentration of the drug was subtracted from the resulting values. The level of parasite proliferation in the presence of each drug concentration was expressed as a percentage of the proliferation measured in the absence of the drug for which the IC50 was being determined. The IC50s were determined in SigmaPlot by a least-squares fit of the equation y = a/ [1 ([drug]/IC50)c] to the data, where y is the percent parasite proliferation, a is the maximum change in the percent parasite proliferation, and c is a fitted constant. In all cases, five independent experiments were performed (on different days), and within each experiment measurements were averaged from three replicates."}, "C6^7G8": {"test_system": "C6^7G8", "assay": "P. falciparum drug susceptibility (parasite proliferation, SYBR Safe)", "format": "cell-based", "conditions": "Plasmodium falciparum, Control, 72 h", "experimental": "as §1"}, "3D7": {"test_system": "3D7", "assay": "P. falciparum drug susceptibility (parasite proliferation, SYBR Safe)", "format": "cell-based", "conditions": "Plasmodium falciparum, Control, 72 h", "experimental": "as §1"}, "C4^Dd2": {"test_system": "C4^Dd2", "assay": "P. falciparum drug susceptibility (parasite proliferation, SYBR Safe)", "format": "cell-based", "conditions": "Plasmodium falciparum, Control, 72 h", "experimental": "as §1"}, "C2^GC03": {"test_system": "C2^GC03", "assay": "P. falciparum drug susceptibility (parasite proliferation, SYBR Safe)", "format": "cell-based", "conditions": "Plasmodium falciparum, Control, 72 h", "experimental": "as §1"}, "76I,369F-PfCRT^K1": {"target": "76I,369F-PfCRT^K1 (Plasmodium falciparum, UniProt Q9N623, A220S/K76I/M74I/N326S/N75E/Q271E/R371I/V369F)", "sequence (Q9N623 whole entry A220S/K76I/M74I/N326S/N75E/Q271E/R371I/V369F)": "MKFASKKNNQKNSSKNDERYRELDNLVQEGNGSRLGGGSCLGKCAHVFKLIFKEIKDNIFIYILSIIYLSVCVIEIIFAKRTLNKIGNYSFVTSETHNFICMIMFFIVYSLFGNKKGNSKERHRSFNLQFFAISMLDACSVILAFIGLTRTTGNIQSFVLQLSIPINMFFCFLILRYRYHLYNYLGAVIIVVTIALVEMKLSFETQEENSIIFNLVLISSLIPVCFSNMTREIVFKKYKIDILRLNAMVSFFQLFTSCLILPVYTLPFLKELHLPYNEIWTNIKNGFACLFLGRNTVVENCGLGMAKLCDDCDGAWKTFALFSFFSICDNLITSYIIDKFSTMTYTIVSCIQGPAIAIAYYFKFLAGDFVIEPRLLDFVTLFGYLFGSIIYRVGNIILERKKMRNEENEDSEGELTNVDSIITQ", "assay": "[3H]drug transport into Xenopus oocytes expressing PfCRT", "format": "cell-based", "experimental": "(§2) For each treatment, 10 oocytes were transferred to a 5 mL polystyrene round bottom tube (Falcon) and washed twice with 3.5 mL of ND96 buffer, with the residual buffer removed by pipette. […] The assay was terminated by removing the reaction buffer with a pipette and washing the oocytes twice with 3.5 mL of ice-cold ND96 buffer. Each oocyte was transferred to a separate well of a white 96-well plate (NUNC or PerkinElmer), incubated overnight at room temperature in 30 μL of 10% SDS, and mixed on an orbital shaker the following day for approximately 5 min. The lysed oocyte was then combined with 150 μL of MicroScint-40 microscintillant (PerkinElmer), the plate covered with a TopSeal-A (PerkinElmer), and the radioactivity measured with a PerkinElmer MicroBeta^2 microplate liquid scintillation analyzer."}, "C2^GC03 (PfCRT^3D7)": {"test_system": "C2^GC03 (PfCRT^3D7)", "assay": "P. falciparum H+ efflux assay (DV alkalinization rate)", "format": "cell-based, Plasmodium falciparum", "experimental": "(§3) Saponin-isolated trophozoite-stage parasites containing the membrane-impermeant pH-sensitive fluorescent indicator fluorescein-dextran (10,000 MW; Life Technologies) in their DVs were prepared as outlined elsewhere. The isolated parasites were washed and suspended in a saline solution (125 mM NaCl, 5 mM KCl, 1 mM MgCl2, 20 mM glucose, 25 mM HEPES; pH 7.1) at a density of 1–3 × 10^7 cells/mL. The fluorometry experiments were performed as described previously. The pH of the DV was monitored at 37°C using a PerkinElmer Life Sciences LS50B fluorometer with a dual excitation Fast Filter accessory (excitation 490 and 450 nm; emission 520 nm). The experiments entailed monitoring the alkalinization of the DV upon addition of the V-type H^+-ATPase inhibitor concanamycin A (100 nM; Sigma-Aldrich), in the presence or absence of the drugs of interest. Half-times for DV alkalinization (t1/2) were calculated as outlined elsewhere. In all cases, five independent experiments were performed on different days."}, "C6^7G8 (PfCRT^7G8)": {"test_system": "C6^7G8 (PfCRT^7G8)", "assay": "P. falciparum H+ efflux assay (DV alkalinization rate)", "format": "cell-based, Plasmodium falciparum", "experimental": "as §3"}, "C4^Dd2 (PfCRT^Dd2)": {"test_system": "C4^Dd2 (PfCRT^Dd2)", "assay": "P. falciparum H+ efflux assay (DV alkalinization rate)", "format": "cell-based, Plasmodium falciparum", "experimental": "as §3"}, "noninjected oocytes": {"test_system": "noninjected oocytes", "assay": "[3H]drug uptake into noninjected oocytes (background accumulation)", "format": "cell-based, Xenopus laevis", "conditions": "for rate of CQ uptake: [3H]CQ […]", "experimental": "as §2"}, "PfCRT^K1 [1]": {"test_system": "PfCRT^K1", "assay": "[3H]drug transport into Xenopus oocytes expressing PfCRT", "format": "cell-based, Plasmodium falciparum", "experimental": "as §2"}, "76I-PfCRT^K1": {"target": "76I-PfCRT^K1 (Plasmodium falciparum, UniProt Q9N623, A220S/K76I/M74I/N326S/N75E/Q271E/R371I)", "sequence (Q9N623 whole entry A220S/K76I/M74I/N326S/N75E/Q271E/R371I)": "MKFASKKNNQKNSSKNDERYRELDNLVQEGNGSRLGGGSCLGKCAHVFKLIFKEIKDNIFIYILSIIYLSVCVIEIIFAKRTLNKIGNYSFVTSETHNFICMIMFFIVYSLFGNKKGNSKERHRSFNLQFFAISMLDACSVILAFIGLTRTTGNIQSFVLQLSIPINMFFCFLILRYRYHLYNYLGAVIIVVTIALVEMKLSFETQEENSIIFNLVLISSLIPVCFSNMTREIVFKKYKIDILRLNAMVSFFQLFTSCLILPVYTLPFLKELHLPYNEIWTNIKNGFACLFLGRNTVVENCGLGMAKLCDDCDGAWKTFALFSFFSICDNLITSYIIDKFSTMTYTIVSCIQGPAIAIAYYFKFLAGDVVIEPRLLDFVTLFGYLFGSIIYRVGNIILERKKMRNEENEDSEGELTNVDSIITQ", "format": "cell-based", "experimental": "as §2"}, "[2]": {"test_system": "P. falciparum line 106/1^76I,369F", "conditions": "106/1^76I,369F (76I,369F-PfCRT^K1); IC50 in line divided by IC50 in drug-sensitive reference strain; cited from earlier work"}, "[3]": {"test_system": "P. falciparum line 106/1^76I,352R", "conditions": "106/1^76I,352R (76I,352R-PfCRT^K1); IC50 in line divided by IC50 in drug-sensitive reference strain; cited from earlier work"}, "P. falciparum 106/1": {"test_system": "P. falciparum 106/1", "conditions": "106/1 (76K-PfCRT^K1); IC50 in line divided by IC50 in drug-sensitive reference strain; cited from earlier work"}, "P. falciparum line K1AM": {"test_system": "P. falciparum line K1AM", "conditions": "K1AM (163R,356V-PfCRT^K1); IC50 in line divided by IC50 in drug-sensitive reference strain; cited from earlier work"}, "PfCRT^K1 [4]": {"test_system": "PfCRT^K1", "conditions": "oocytes; cited from earlier work"}, "P. falciparum Dd2": {"test_system": "P. falciparum Dd2", "conditions": "Dd2 (PfCRT^Dd2); IC50 in line divided by IC50 in drug-sensitive reference strain; cited from earlier work"}}, "note": "Values joined by “and” are separate entries in the source; they are usually repeats but may differ in a detail not shown here. Identical values can stand only once.", "data": [{"smiles": "NC12CC3CC(CC(C3)C1)C2", "note": "[amantadine]", "values": [{"measurement": "IC50", "setting": "Dd2", "value": "11 ± 0.1", "unit": "µM"}, {"measurement": "IC50", "setting": "C6^7G8", "value": "43 ± 2.9", "unit": "µM"}, {"measurement": "IC50", "setting": "3D7", "value": "344 ± 8.9", "unit": "µM"}, {"measurement": "IC50", "setting": "C4^Dd2", "value": "8.4 ± 0.06", "unit": "µM"}, {"measurement": "IC50", "setting": "C2^GC03", "value": "335 ± 9.5", "unit": "µM"}, {"measurement": "amantadine transport activity", "setting": "76I,369F-PfCRT^K1; oocytes expressing 76I,369F-PfCRT^K1, pH 5.0, 50 μM unlabeled amantadine", "value": "very low (but statistically significant) level"}, {"measurement": "substrate of PfCRT in situ (rate of DV alkalinization)", "setting": "C2^GC03 (PfCRT^3D7); C2^GC03, wild-type PfCRT (PfCRT^3D7), amantadine 10 μM", "value": "not of wild-type PfCRT"}, {"measurement": "substrate of PfCRT in situ (rate of DV alkalinization)", "setting": "C6^7G8 (PfCRT^7G8); C6^7G8, PfCRT^7G8, amantadine 10 μM", "value": "is a substrate"}, {"measurement": "substrate of PfCRT in situ (rate of DV alkalinization)", "setting": "C4^Dd2 (PfCRT^Dd2); C4^Dd2, PfCRT^Dd2, amantadine 10 μM", "value": "is a substrate"}, {"measurement": "rate of amantadine uptake", "setting": "noninjected oocytes; [3H]amantadine 0.146 μM, pH 5.0, 50 μM unlabeled amantadine", "value": "5.4 ± 0.9", "unit": "nmol per oocyte/h"}, {"measurement": "rate of amantadine uptake", "setting": "PfCRT^K1 [1]; PfCRT^K1-expressing oocytes, [3H]amantadine 0.146 μM, pH 5.0, 50 μM unlabeled amantadine", "value": "12 ± 2.8", "unit": "nmol per oocyte/h"}, {"measurement": "[3H]amantadine accumulation relative to noninjected oocytes", "setting": "PfCRT^K1 [1]; oocytes expressing PfCRT^K1, pH 5.0, 50 μM unlabeled amantadine", "value": "marked increase"}, {"measurement": "[3H]amantadine accumulation relative to noninjected oocytes", "setting": "76I-PfCRT^K1; oocytes expressing 76I-PfCRT^K1, pH 5.0, 50 μM unlabeled amantadine", "value": "marked increase"}]}, {"smiles": "CCN(CC)CCCC(C)Nc1ccnc2cc(Cl)ccc12", "note": "(stereo not shown) [CQ, chloroquine]", "values": [{"measurement": "Drug susceptibility (In vitro resistance index)", "setting": "[2]", "value": 3.53}, {"measurement": "IC50", "setting": "Dd2", "value": "0.151 ± 0.0048", "unit": "µM"}, {"measurement": "IC50", "setting": "C6^7G8", "value": "0.087 ± 0.0021", "unit": "µM"}, {"measurement": "IC50", "setting": "3D7", "value": "0.025 ± 0.0011", "unit": "µM"}, {"measurement": "IC50", "setting": "C4^Dd2", "value": "0.149 ± 0.0046", "unit": "µM"}, {"measurement": "IC50", "setting": "C2^GC03", "value": "0.027 ± 0.0016", "unit": "µM"}, {"measurement": "Drug susceptibility (In vitro resistance index)", "setting": "[3]", "value": "1.58 ± 0.02"}, {"measurement": "Drug susceptibility (In vitro resistance index)", "setting": "P. falciparum 106/1", "value": "1.10 ± 0.06"}, {"measurement": "Drug susceptibility (In vitro resistance index)", "setting": "P. falciparum line K1AM", "value": 0.95}, {"measurement": "Apparent Vmax", "setting": "76I,369F-PfCRT^K1; transport via 76I,369F-PfCRT^K1 in oocytes, CQ pH 6.0", "value": "13.8 pmol per oocyte/h and 13.8 ± 1.3^c (5) pmol per oocyte/h"}, {"measurement": "CQ transport activity of PfCRT^K1, higher than that of PfCRT^Dd2", "setting": "PfCRT^K1 [4]", "value": "~ 20%"}, {"measurement": "effect on rate of DV alkalinization", "setting": "C2^GC03 (PfCRT^3D7); C2^GC03 (CQ-sensitive), CQ […], concanamycin A 100 nM", "value": "without effect"}, {"measurement": "effect on rate of DV alkalinization", "setting": "C6^7G8 (PfCRT^7G8); C6^7G8 (CQ-resistant), CQ […], concanamycin A 100 nM", "value": "increased"}, {"measurement": "effect on rate of DV alkalinization", "setting": "C4^Dd2 (PfCRT^Dd2); C4^Dd2 (CQ-resistant), CQ […], concanamycin A 100 nM", "value": "increased"}, {"measurement": "rate of CQ uptake", "setting": "noninjected oocytes; pH 5.5, 15 μM unlabeled CQ (S5 Fig)", "value": "1.41 ± 0.02", "unit": "pmol per oocyte/h"}, {"measurement": "rate of CQ uptake", "setting": "noninjected oocytes; pH 6.0, 15 μM unlabeled CQ (Fig 2A)", "value": "0.98 ± 0.13", "unit": "pmol per oocyte/h"}, {"measurement": "Drug susceptibility (In vitro resistance index)", "setting": "P. falciparum Dd2", "value": "11.78 ± 0.18"}, {"measurement": "rate of CQ uptake", "setting": "PfCRT^K1 [1]; oocytes expressing PfCRT^K1, [3H]CQ […], pH 6.0, 15 μM unlabeled CQ (Fig 2A)", "value": "6.75 ± 0.94", "unit": "pmol per oocyte/h"}, {"measurement": "Apparent Vmax", "setting": "PfCRT^K1 [1]; transport via PfCRT^K1 in oocytes, CQ pH 6.0, quinine and quinidine pH 5.0", "value": "72 ± 3 (9) pmol per oocyte/h"}, {"measurement": "Km", "setting": "PfCRT^K1 [1]; transport via PfCRT^K1 in oocytes, CQ pH 6.0, quinine and quinidine pH 5.0, 76K-PfCRT^K1 control subtracted, read-out: Apparent Km", "value": "282 ± 5", "unit": "µM"}, {"measurement": "Apparent Vmax", "setting": "76I-PfCRT^K1; transport via 76I-PfCRT^K1 in oocytes, CQ pH 6.0, quinine and quinidine pH 5.0", "value": "29.3 pmol per oocyte/h and 29.3 ± 7.2^c,f (5) pmol per oocyte/h"}]}]}
